Experiments:
HCC827 cells = assay: Proliferation assay (resazurin / AlamarBlue readout) in HCC827 cells; type: cell-based; details: single agent, up to 1 μM
Protocol: A DMSO-only control was included. […] Recombinant human HGF (PeproTech, catalogue number 100-39) was added together with compounds at a constant concentration as indicated in the respective experiments. Cells were incubated for 72 to 96 h and the amount of viable cells was then assessed using a resazurin sodium salt dye reduction readout (commercially known as AlamarBlue® assay, Invitrogen, Life Technologies Corporation, Grand Island, N.Y., USA). Values were normalized and plotted as either “% of control” with the DMSO control set to 100%, or as “fold seeded cells”. In this case a resazurin readout of separate wells with untreated cells was obtained 24 h after seeding in order to determine a “seeded cells” value for normalization. Plotting of the data and curve-fitting were done with GraphPad Prism version 5.00 for Windows (GraphPad Software, Inc., La Jolla, Calif., USA).

HCC827 GR cells = assay: Proliferation assay (resazurin / AlamarBlue readout) in gefitinib-resistant HCC827 GR cells; type: cell-based; details: monotherapy
Protocol: 24 h later, a 10-point dilution series of each compound was prepared in DMSO. […] A DMSO-only control was included. […] Recombinant human HGF (PeproTech, catalogue number 100-39) was added together with compounds at a constant concentration as indicated in the respective experiments. Cells were incubated for 72 to 96 h and the amount of viable cells was then assessed using a resazurin sodium salt dye reduction readout (commercially known as AlamarBlue® assay, Invitrogen, Life Technologies Corporation, Grand Island, N.Y., USA). Values were normalized and plotted as either “% of control” with the DMSO control set to 100%, or as “fold seeded cells”. In this case a resazurin readout of separate wells with untreated cells was obtained 24 h after seeding in order to determine a “seeded cells” value for normalization.

[1] = tested on: HCC827GR5 subcutaneous xenografts; assay: Efficacy experiments in mice bearing HCC827GR5 subcutaneous xenografts; type: in vivo; details: for antitumor effect as single agent: Discussion; for antitumor effect as single agent / regressions / Delta tumor volume: MET inhibitor 3 mg/kg, gefitinib 25 mg/kg; for regressions: orally once a day; for regressions / T/C: 13 days; for T/C: gefitinib 25 mg/kg orally once a day
Protocol: Experiments were performed in female Hsd: Athymic nude-nu CPB mice obtained from Harlan Winkelmann, Germany. Animally were approximately 11 weeks of age at treatment start and housed under Optimized Hygienic Conditions (OHC) in Macrolon type III cages (max. 5 animals per cage) with free access to food and water.
Cell line identity has been confirmed by SNP genotyping. Cells were grown in RPMI 1640 medium (Amimed #1-41F01-1) supplemented with 10% heat inactivated FCS, (Amimed #2-01F16-1), 2 mM L-glutamine (Amimed #5-10K00-H), 1 mM sodium pyruvate (Amimed #5-60F00-H) and 10 mM HEPES (Gibco #15630). […]. Cells were incubated at 37° C. in a humidified atmosphere with 5% CO2.
HCC827GR5 tumors were established by subcutaneous injection of 5×10^6 cells in 115 μl HBSS (Hank's buffered salt solution) containing 50% Matrigel (v/v) (gelatinous protein mixture secreted by Engelbreth-Holm-Swarm (EHS) mouse sarcoma cells, BD Biosciences, Franklin Lakes, N.J., USA) into the right flank of mice, with a 13 gauge trocar needle under Forene® (Isofluran; Abott, Switzerland) anesthesia. In the efficacy experiments, treatments started when the tumors reached an average size of 150 mm^3, 11 days post tumor implantation. In the PK/PD experiment, treatments were started when the mean tumor size was 450 mm^3, 15 days post tumor implantation.
The application volumes were 10 ml/kg for the single agents and for the vehicle control group or 5 ml/kg when the test compounds were given in combination. All indicated doses refer to free base equivalent of 2-Fluoro-N-methyl-4-[(7-quinolin-6-yl-methyl)-imidazo[1,2-b]triazin-2-yl]benzamide (dihydrochloride salt). […].
Tumor volumes were measured with calipers and determined according to the formula length×diameter^2×π/6. In addition to presenting changed of tumor volumes over the course of treatments, antitumor activity is expressed as T/C % ((mean change of tumor volume of treated animals/mean change of tumor volume of control animals)×100). Regressions (%) were calculated according to the formula ((mean tumor volume at end of treatment−mean tumor volume at start of treatment)/mean tumor volume at start of treatment)×100. Body weights and tumor volumes were recorded twice a week.
Statistics: Were applicable, data is presented as mean±SEM. For all tests, the level of significance was set at p<0.05. For tumor volumes, comparisons between treatment groups and vehicle control group were done using one-way ANOVA followed by Dunnett's test. Pairwise comparisons were done using a one way ANOVA followed by Tukey's test. The level of significance of body weight change within a group between the start and the end of the treatment period was determined using a paired t-test. Comparisons of delta body weighs between treatment and vehicle control groups were performed by a one-way ANOVA followed by a post hoc Dunnett's test. Calculations were performed using GraphPad Prism 4 for Windows (GraphPad Software Inc.). In addition, an approximation of drug interactions was made using the method described by Clarke (Clarke R., Breast Cancer Research and Treatment 46, 255-278 (1997)). This was applied to delta tumor volumes and can estimate interactions from limited data. In short, the combination data was assessed using the method presented by Clarke which can estimate interactions from limited data. For compound A, B or the combination AB (with control group C), antagonism is predicted when the calculation AB/C>A/C×B/C, additive effect: AB/C=A/C×B/C, synergistic interactions are predicted to occur when AB/C<A/C×B/C.
The body weight increase was statistically significant in all groups excepted the combination group (p<0.05, paired t-test).

[2] = tested on: HCC827GR5 subcutaneous xenografts; assay: Follow-up of HCC827GR5 xenografts after treatment discontinuation or extension; type: in vivo, mice; details: 4 animals
Protocol: FIG. 5: Graphic representation of the change of tumor volumes over time after treatment discontinuation in mice (in vivo) as described in more detail in the Examples. […] Treatments started 11 days post tumor cells implantation and lasted 13 consecutive days. […] Four animals were kept under observation, without any treatment (left panel) while the two other groups of 4 animals each were kept under daily treatment as before (right panel). Tumor volumes and body weights were recorded only once a week. Horizontal lines are set at 100 and 500 mm^3 tumor volumes.
[…]. Treatments started 11 days post tumor cells implantation and lasted 13 consecutive days. […] Four animals were kept under observation, without any treatment (left panel) while the two other groups of 4 animals each were kept under daily treatment as before (right panel). Tumor volumes and body weights were recorded only once a week. Horizontal lines are set at 100 and 500 mm^3 tumor volumes, respectively. […] […]. The tumors in the animals that received the combination therapy continued to regress from a mean volume of 33+/−1.3 to 26.3+/−2.8 mm^3 (representing a mean of 89.2% regression from the initial volume).

[3] = tested on: c-MET-driven or HGF/c-MET-driven xenograft; assay: c-MET-driven or HGF/c-MET-driven xenograft mouse tumor models; type: in vivo; details: oral dosing
Source text: […]. […] […]. […] Importantly, cell lines with simultaneous HGF and c-MET expression are also relatively resistant to EGFR inhibitors compared to cell lines with similar c-MET level that lack HGF expression.

Row | SMILES | effect on proliferation of the HCC827 cells (HCC827 cells) | effect of single agent on proliferation of HCC827 GR cells (HCC827 GR cells) | antitumor effect as single agent [1] | regressions ([1]; first experiment (FIG. 3)) [%] | Delta tumor volume ([1]; first experiment, Table 1) | regressions ([1]; second experiment (FIG. 4)) [%] | Delta tumor volume ([1]; second experiment, Table 2) | tumor volume, mean+/−SEM, after treatment discontinuation ([2]; no treatment after day 24 (FIG. 5 left graph)) | tumor volume, mean, under extended daily treatment ([2]; treatment continued after day 24 (FIG. 5 right panel)) | in vivo activity in blocking c-MET phosphorylation and tumor growth [3] | T/C ([1]; first experiment (FIG. 3)) [%] | T/C ([1]; second experiment (FIG. 4)) [%]
1 | CNC(=O)c1ccc(-c2cnc3ncc(Cc4ccc5ncccc5c4)n3n2)cc1F [2-fluoro-N-methyl-4-[(7-quinolin-6-yl-methyl)-imidazo[1,2-b]triazin-2-yl]benzamide] | did not show any substantial effect | modest | slight statistically significant tumor regressions | 22.9 | −60.2 | 21.4 | −55.7 | 516+/−112 mm^3 | 400+/−80 mm^3 | significant in vivo activity | – | –
2 | COc1cc2ncnc(Nc3ccc(F)c(Cl)c3)c2cc1OCCCN1CCOCC1 [gefitinib, N-(3-hloro-4-fluorophenyl)-7-methoxy-6-[3-(morpholin-4-yl)propoxy]quinazolin-4-amine, reference compound] | – | – | statistically significant antitumor effects, but never regressions | – | 173.1 | – | 261 | – | – | – | 32.5 | 49.4

Source: patent publication US11096947B2, “Combination products with tyrosine kinase inhibitors and their use” (Novartis AG, priority 2012, dated 2021)
